Laboratory results published in US11542259B2, “Compounds for the treatment of kinase-dependent disorders” (Exelixis, Inc., priority 2018, dated 2023).
Where two headings read alike, the source gives them in different places.

Test: Pharmacokinetic studies in male Sprague-Dawley rats
Type: in vivo
Conditions: rat; for clearance / half-life / Cmax: male, Sprague-Dawley, plasma; for half-life: read-out: t½
Method: Pharmacokinetic properties of select compounds were assessed in male Sprague-Dawley rats.
The non-GLP study was designed to investigate the pharmacokinetics of chosen compounds in plasma following an intravenous or oral dose administration to male Sprague Dawley rats. […]
Animals in the PO group were fasted overnight prior to dose administration. Food was returned following the collection of the 4-hour blood sample. Water was not withheld.
Immediately prior to dosing, the body weight of each animal was recorded. Doses (rounded to the nearest 0.001 mL) were calculated based on the pretreatment body weight (kg) and a dose volume of 2.5 mL/kg for intravenous administration and 5 mL/kg for oral administration. Intravenous formulations were administered via a jugular vein cannula. Immediately after dosing, the cannula was flushed with saline and the line was tied off. The oral dose was administered via a ball-tipped feeding needle. Dosing syringe volumes for administration were second-person verified prior to dosing and that volume along with the results for the concentration verification analysis were used to calculate the actual dose administered. Dosing syringes were weighed immediately prior to and immediately after dosing each animal as a gravimetric check.
Serial blood samples (approximately 200 μL per sample) were collected from each animal at 0.083 (IV dosing only), 0.25, 0.5, 1, 2, 4, 6 (PO dosing only), 8, 24, 32, 48, and 72 hours after dosing. Blood samples were collected into tubes containing K2EDTA via the non-dosing jugular-vein cannula (JVC), which was flushed with an approximately equal volume of saline following each collection.
Blood samples were stored on wet ice until processed to plasma by centrifugation (3500 rpm at 5° C. for 10 minutes) within 1 hour of collection. Plasma samples were transferred into matrix tubes and then stored in a −80° C. freezer.
Plasma samples and dose formulation samples were analyzed for the compounds of interest using liquid chromatography-tandem mass spectrometry (LC-MS/MS) methods. Pharmacokinetic parameter estimates were calculated from the individual animal plasma concentration-time data using the actual dose based on the analysis of the dosing formulations, nominal sampling times (all collections were within an acceptable range of target), and non-compartmental methods. The concentration-time data were analyzed to fit either an intravenous-bolus (IV) plasma analysis model (201) or extra-vascular (P0) dosing plasma analysis model (200) using the software WinNonlin Phoenix version 6.3 (Pharsight). The single-dose pharmacokinetic parameters assessed include, as appropriate: Cmax (observed peak or maximum concentration); Tmax (observed time of peak concentration); T1/2 (terminal half-life); Vz (volume of distribution based on the terminal phase); Vss (volume of distribution at steady state); AUCINF (area under the concentration-time curve computed from time zero to infinity); AUClast (area under the concentration-time curve computed from time zero to the time of the last quantifiable concentration); C0 (back-extrapolated concentration at time zero); CL (total body clearance); Vz/F (volume of distribution for extravascular administration based on the terminal phase); CL/F (total body clearance for extravascular administration); F % (bioavailability); and MRTlast (mean residence time).
Areas-under-the-plasma concentration-time curves (AUC) were estimated using the linear-log trapezoidal rule. The area through the time (Tlast) of the last observable concentration (Clast) is reported as AUClast. AUC extrapolated to infinity, (AUCINF) was estimated by adding AUClast and the ratio of Clast/λz, where λz is the terminal rate constant. Apparent terminal half-life (T1/2) was calculated as ln(2)/λz and determined using the slope of the log-linear terminal phase of the concentration-time curve, defined by a minimum of three plasma concentration-time points. […]

| Cmax (PO (3 mg/kg)) [µM] | half-life (PO (3 mg/kg)) [h] | clearance (IV (3 mg/kg)) [mL/min/kg] | half-life (IV (3 mg/kg)) [h] | Structure (SMILES) | also measured |
| --- | --- | --- | --- | --- | --- |
| 8.8 | 7.3 | – | – | COc1cc2nccc(Oc3ccc(NC(=O)C4(C(=O)Nc5ccc(F)cc5)CC4)cc3)c2cc1C(N)=O [Compound 7, 1-N-[4-(6-carbamoyl-7-methoxyquinolin-4-yl)oxyphenyl]-1-N′-(4-fluorophenyl)cyclopropane-1,1-dicarboxamide] | clearance (IV (1 mg/kg)): 1.48 mL/min/kg; half-life (IV (1 mg/kg)): 3.1 h |
| 11.4 | 7.1 | 0.717 | 5.4 | CNC(=O)c1cc2c(Oc3ccc(NC(=O)C4(C(=O)Nc5ccc(F)cc5)CC4)cc3)ccnc2cc1OC [Compound 8, 1-N′-(4-fluorophenyl)-1-N-[4-[7-methoxy-6-(methylcarbamoyl)quinolin-4-yl]oxyphenyl]cyclopropane-1,1-dicarboxamide] | – |
| 3.9 | 2.6 | 2.53 | 2.8 | CCNC(=O)c1cc2c(Oc3ccc(NC(=O)C4(C(=O)Nc5ccc(F)cc5)CC4)cc3)ccnc2cc1OC [Compound 9, 1-N-[4-[6-(ethylcarbamoyl)-7-methoxyquinolin-4-yl]oxyphenyl]-1-N′-(4-fluorophenyl)cyclopropane-1,1-dicarboxamide] | F (PO (3 mg/kg)): F = 69% |
| – | – | – | – | CONC(=O)c1cc2c(Oc3ccc(NC(=O)C4(C(=O)Nc5ccc(F)cc5)CC4)cc3)ccnc2cc1OC [Compound 17, 1-N′-(4-fluorophenyl)-1-N-[4-[7-methoxy-6-(methoxycarbamoyl)quinolin-4-yl]oxyphenyl]cyclopropane-1,1-dicarboxamide] | clearance (IV (3.0 mg/kg)): 1.7 mL/min/kg; half-life (IV (3.0 mg/kg)): 3 h; Cmax (PO (3.2 mg/kg)): 3.4 µM; half-life (PO (3.2 mg/kg)): 4.5 h; F (PO (3.2 mg/kg)): F = 46% |
| 15.3 | 5.7 | – | – | COc1cc2nccc(Oc3ccc(NC(=O)C4(C(=O)Nc5ccc(F)cc5)CC4)cc3)c2cc1-c1ncco1 [Compound 45, 1-N′-(4-fluorophenyl)-1-N-[4-[7-methoxy-6-(1,3-oxazol-2-yl)quinolin-4-yl]oxyphenyl]cyclopropane-1,1-dicarboxamide] | clearance (IV (1 mg/kg)): 0.683 mL/min/kg; half-life (IV (1 mg/kg)): 10.1 h |
| – | – | – | – | COc1cc2nccc(Oc3ccc(NC(=O)C4(C(=O)Nc5ccc(F)cc5)CC4)cc3)c2cc1-c1ncc[nH]1 [Compound 191, 1-N′-(4-Fluorophenyl)-1-N-[4-[6-(1H-imidazol-2-yl)-7-methoxyquinolin-4-yl]oxyphenyl]cyclopropane-1,1-dicarboxamide] | clearance (IV (3.0 mg/kg)): 1.05 mL/min/kg; half-life (IV (3.0 mg/kg)): 9.9 h; Cmax (PO (3.1 mg/kg)): 4.6 µM; half-life (PO (3.1 mg/kg)): 6.8 h; F (PO (3.1 mg/kg)): F = 38% |
| 0.7 | 2.9 | 8.52 | 2.1 | COc1cc2nccc(Oc3ccc(NC(=O)C4(C(=O)Nc5ccc(F)cc5)CC4)cc3)c2cc1S(N)(=O)=O [Compound 206, 1-N′-(4-Fluorophenyl)-1-N-[4-(7-methoxy-6-sulfamoylquinolin-4-yl)oxyphenyl]cyclopropane-1,1-dicarboxamide] | F (PO (3 mg/kg)): F = 37% |
